The values that follow come from patent US20240391871A1, “SUBSTITUTED HYDROXYMETHYL PYRROLIDINES AND MEDICAL USES THEREOF” (ATROGI AB, priority 2021, published 2024).

Structures can show the parent of a compound that is named as a salt.

Test [1] relates to Intracellular cAMP levels. Description: Measurement of intracellular cAMP levels in differentiated L6 cells. It counts as cell-based. The following applies: compound 1×10^−5 M, 15 min; for Emax at 10 µM: Rattus norvegicus, L6, 0.25 h, read-out: Biological example 2: intracellular cAMP levels, activity compared to that of isoproterenol. The procedure: (§1) L6-myoblasts were grown in Dulbecco's Modified Eagle's Medium (DMEM) containing 1 g/L glucose supplemented with 10% fetal bovine serum, 2 mM L-Glutamine, 50 U/mL penicillin, 50 μg/mL streptomycin and 10 mM HEPES. Cells were plated at 1×10^5 cells per mL in 24-well plates. After reaching 90% confluence the cells were grown in medium containing 2% FBS for 7 days where upon cells differentiated into myotubes.
Differentiated cells were serum-starved overnight and stimulated with an agonist, final concentration 1×10^−5 M, for 15 min in stimulation buffer (HBSS supplemented with 1% BSA, 5 mM HEPES and 1 mM IBMX, pH 7.4). The medium was aspirated and 100 μL of 95% EtOH was added to each well of the 24-well plate and cells were kept at −20° C. overnight. The EtOH was allowed to evaporate and 500 μL of lysis buffer (1% BSA, 5 mM HEPES and 0.3% Tween-20, pH 7.4) was added to each well. The plate was kept at −80° C. for 30 min and then at −20° C. until the day of detection when the samples were thawed. Intracellular cAMP levels were detected using an alpha screen cAMP kit (6760635D from Perkin Elmer). The activity for each compound is compared to that of isoproterenol.
For orientation: Changes in cAMP serve as a functional read-out for many G protein-coupled receptors.

The test system of the next test is L6-myotubes. The experiment in a line: Glucose uptake (3H-2-deoxyglucose) in differentiated L6-myotubes. It counts as cell-based. Particulars: compound 1×10^−5 M; for Emax at 10 µM: read-out: Biological example 1: glucose uptake, activity compared to that of isoproterenol; for Biological example 1: glucose uptake, activity compared to that of isoproterenol: hydrochloride. The procedure: as §1
Differentiated L6-myotubes were serum-starved overnight in medium containing 0.5% fatty-acid free BSA and stimulated with an agonist, with a final concentration of 1×10^−5 M. After 1 h 40 min the cells were washed with warm glucose free medium or PBS twice and another portion of agonist was added to the glucose free medium. After 20 min the cells were exposed to 50 nM ^3H-2-deoxyglucose for 10 min before washed with ice cold glucose free medium or PBS three times and lysed with 0.2 M NaOH, 400 μL/well, for 1 h at 60° C. The cell lysate was mixed with 4 mL scintillation buffer (Emulsifier Safe, Perkin Elmer) and the radioactivity was detected in a β-counter (Tri-Carb 4810TR, Perkin Elmer). The activity for each compound is compared to that of isoproterenol.

For the compound `O[C@@H](c1cncc(F)c1)[C@H]1CC[C@@H](Cc2ccc(Cl)cc2)N1` [Example 30, (S)-(2R,5S)-5-(4-Chlorobenzyl)pyrrolidin-2-yl)(5-fluoropyridin-3-yl) -methanol dihydrochloride], the Emax at 10 µM in test [1] was less than 25%; with L6-myotubes, 50 to 75%.
The matching figures for `O[C@H](c1cncc(F)c1)[C@H]1CC[C@H](Cc2ccc(Cl)cc2)N1` [Example 31, (R)-((2R,5R)-5-(4-Chlorobenzyl)pyrrolidin-2-yl)(5-fluoropyridin-3-yl) -methanol dihydrochloride]: less than 25% and greater than 75%.
For `O[C@@H](c1cncc(F)c1)[C@H]1CC[C@H](Cc2ccc(Cl)cc2)N1` [Example 32, (S)-(2R,5R)-5-(4-Chlorobenzyl)pyrrolidin-2-yl)(5-fluoropyridin-3-yl) -methanol dihydrochloride], the Emax at 10 µM in test [1] is less than 25%; in the test on L6-myotubes, greater than 75%.
For the compound `CC(=O)N(Cc1ccccc1)[C@H]1CC[C@@H](C[C@@H]2CC[C@H]([C@H](O)c3cccc(F)c3)N2)CC1` [Example 33, N-Benzyl-N-((1R,4s)-4-(((25,5R)-5-((R)-(3-fluorophenyl)(hydroxy)methyl) -pyrrolidin-2-yl)methyl)cyclohexyl)acetamide hydrochloride], the Emax at 10 µM was less than 25% in test [1] and 50 to 75% in the test on L6-myotubes.
For the compound `CC(=O)N[C@H]1CC[C@H](C[C@@H]2CC[C@H]([C@H](O)c3cccc(F)c3)N2)CC1.Cl` [Example 34, N-((1S,4r)-4-(((2S,5R)-5-((R)-(3-Fluorophenyl)(hydroxy)methyl)pyrrolidin-2-yl)methyl)cyclohexyl)acetamide hydrochloride], in test [1], the Emax at 10 µM was less than 25%. Also, the “Biological example 1: glucose uptake, activity compared to that of isoproterenol” value in the test on L6-myotubes is given as “+++ (more than 75% of that of isoproterenol)”.
As for `CC(=O)N(Cc1ccccc1)[C@H]1CC[C@@H](C[C@@H]2CC[C@H]([C@@H](O)c3cccc(F)c3)N2)CC1` [Example 35, N-Benzyl-N-((1R,4s)-4-(((2S,5R)-5-((S)-(3-fluorophenyl)(hydroxy) -methyl)pyrrolidin-2-yl)methyl)cyclohexyl)acetamide hydrochloride], the figures for the Emax at 10 µM (in test [1]; with L6-myotubes) were less than 25% and 25 to 50%, respectively.
For `CC(=O)N[C@H]1CC[C@@H](C[C@@H]2CC[C@H]([C@@H](O)c3cccc(F)c3)N2)CC1` [Example 36, N-((1R,4s)-4-(((2S,5R)-5-((S)-(3-Fluorophenyl)(hydroxy)methyl)pyrrolidin-2-yl)methyl)cyclohexyl)acetamide], the Emax at 10 µM in test [1] is less than 25%; in the test on L6-myotubes it was 50 to 75%.
On to `CS(=O)(=O)N(Cc1ccccc1)[C@H]1CC[C@@H](C[C@@H]2CC[C@H]([C@H](O)c3cccc(F)c3)N2)CC1` [Example 37, N-Benzyl-N-((1R,4s)-4-(((2S,5R)-5-((R)-(3-fluorophenyl)(hydroxy)methyl) -pyrrolidin-2-yl)methyl)cyclohexyl)methanesulfonamide hydrochloride], for which the Emax at 10 µM in test [1] was less than 25%; in the test on L6-myotubes, 50 to 75%.
With `CS(=O)(=O)N[C@H]1CC[C@@H](C[C@@H]2CC[C@H]([C@H](O)c3cccc(F)c3)N2)CC1` [Example 38, N-((1R,4s)-4-(((2S,5R)-5-((R)-(3-Fluorophenyl)(hydroxy)methyl)pyrrolidin-2-yl)methyl)cyclohexyl)methanesulfonamide hydrochloride], the Emax at 10 µM is less than 25% in test [1] and greater than 75% with L6-myotubes.
Turning to `CS(=O)(=O)N(Cc1ccccc1)[C@H]1CC[C@@H](C[C@@H]2CC[C@H]([C@@H](O)c3cccc(F)c3)N2)CC1` [Example 39, N-Benzyl-N-((1R,4s)-4-(((2S,5R)-5-((S)-(3-fluorophenyl)(hydroxy) -methyl)pyrrolidin-2-yl)methyl)cyclohexyl)methanesulfonamide hydrochloride], the figures for the Emax at 10 µM (in test [1]; with L6-myotubes) were less than 25% and 50 to 75%, respectively.
On to `CS(=O)(=O)N[C@H]1CC[C@@H](C[C@@H]2CC[C@H]([C@@H](O)c3cccc(F)c3)N2)CC1` [Example 40, N-((1R,4s)-4-(((2S,5R)-5-((S)-(3-fluorophenyl)(hydroxy)methyl)pyrrolidin-2-yl)methyl)cyclohexyl)methanesulfonamide hydrochloride], for which the Emax at 10 µM in test [1] is less than 25%; with L6-myotubes it was 50 to 75%.
Consider `CC(=O)N(Cc1ccccc1)[C@H]1CC[C@H](C[C@@H]2CC[C@H]([C@H](O)c3cccc(F)c3)N2)CC1` [Example 41, N-Benzyl-N-((1S,4r)-4-(((2S,5R)-5-((R)-(3-fluorophenyl)(hydroxy) -methyl)pyrrolidin-2-yl)methyl)cyclohexyl)acetamide hydrochloride], for which the results for the Emax at 10 µM (in test [1]; with L6-myotubes) were less than 25% and 25 to 50%, respectively.
In the case of `CC(=O)N[C@H]1CC[C@H](C[C@@H]2CC[C@H]([C@H](O)c3cccc(F)c3)N2)CC1.Cl` [Example 42, N-((1S,4r)-4-(((2S,5R)-5-((R)-(3-Fluorophenyl)(hydroxy)methyl)pyrrolidin-2-yl)methyl)cyclohexyl)acetamide hydrochloride], the “Biological example 2: intracellular cAMP levels, activity compared to that of isoproterenol” value in test [1] is listed as “− (less than 25%)”. The “Biological example 1: glucose uptake, activity compared to that of isoproterenol” value in the test with L6-myotubes was “++ (between 75 and 50%)”.
Take `CC(=O)N(Cc1ccccc1)[C@H]1CC[C@H](C[C@@H]2CC[C@H]([C@@H](O)c3cccc(F)c3)N2)CC1` [Example 43, N-Benzyl-N-((1S,4r)-4-(((2S,5R)-5-((S)-(3-fluorophenyl)(hydroxy)methyl) -pyrrolidin-2-yl)methyl)cyclohexyl)acetamide hydrochloride]: the Emax at 10 µM is less than 25% in test [1] and 50 to 75% with L6-myotubes.
The like results for `CC(=O)N[C@H]1CC[C@H](C[C@@H]2CC[C@H]([C@@H](O)c3cccc(F)c3)N2)CC1` [Example 44, N-((1S,4r)-4-(((2S,5R)-5-((S)-(3-Fluorophenyl)(hydroxy)methyl)pyrrolidin-2-yl)methyl)cyclohexyl)acetamide hydrochloride] were, in that order, less than 25% and 50 to 75%.
The matching figures for `CS(=O)(=O)N(Cc1ccccc1)[C@H]1CC[C@H](C[C@@H]2CC[C@H]([C@H](O)c3cccc(F)c3)N2)CC1` [Example 45, N-Benzyl-N-((1S,4r)-4-(((2S,5R)-5-((R)-(3-fluorophenyl)(hydroxy) -methyl)pyrrolidin-2-yl)methyl)cyclohexyl)methanesulfonamide hydrochloride]: less than 25% and less than 25%.
In the case of `CS(=O)(=O)N[C@H]1CC[C@H](C[C@@H]2CC[C@H]([C@H](O)c3cccc(F)c3)N2)CC1` [Example 46, N-((1S,4r)-4-(((2S,5R)-5-((R)-(3-Fluorophenyl)(hydroxy)methyl)pyrrolidin-2-yl)methyl)cyclohexyl)methanesulfonamide hydrochloride], the figures for the Emax at 10 µM (in test [1]; in the test with L6-myotubes) were less than 25% and greater than 75%, respectively.
The like results for `CS(=O)(=O)N(Cc1ccccc1)[C@H]1CC[C@H](C[C@@H]2CC[C@H]([C@@H](O)c3cccc(F)c3)N2)CC1` [Example 47, N-Benzyl-N-((1S,4r)-4-(((2S,5R)-5-((S)-(3-fluorophenyl)(hydroxy) -methyl)pyrrolidin-2-yl)methyl)cyclohexyl)methanesulfonamide hydrochloride] were, in that order, less than 25% and less than 25%.
On to `CS(=O)(=O)N[C@H]1CC[C@H](C[C@@H]2CC[C@H]([C@@H](O)c3cccc(F)c3)N2)CC1` [Example 48, N-((1S,4r)-4-(((2S,5R)-5-((S)-(3-Fluorophenyl)(hydroxy)methyl)pyrrolidin-2-yl)methyl)cyclohexyl)methanesulfonamide hydrochloride], for which the Emax at 10 µM in test [1] was less than 25%; in the test with L6-myotubes, 50 to 75%.
